From patent publication EP2435019B1, “DODECA-2E,4E-DIENE AMIDES AND THEIR USE AS MEDICAMENTS AND COSMETICS” (Dr. August Wolff GmbH & Co. KG Arzneimittel, priority 2009, dated 2010)

Experiments:
TNF-alpha release = assay: LPS-induced TNF-alpha release from human macrophages (ELISA); type: cell-based; details: Figure 4; LPS 500 ng/ml; 5 µM for 18 h
Protocol: • Figure 1: AEA re-uptake inhibition of 2E,4E-dieneamides 1 and 9 into human primary monocytes and U937 cells. […] Data are mean values ± SEM of 3 independent experiments in a sigmoidal dose-response curve. • Figure 2: Concentration-dependent effects of 4 and 5 on FAAH activity. […] The maximal inhibition (32%) of 5 was measured at 1 µM. Data are mean values ± SEM of 3 independent experiments. • Figure 3: Effects of low nM concentrations of N-alkylamide 7 on FAAH activity alone and in combination with the FAAH inhibitor URB597. […] Data are mean values ± SEM of 3 independent experiments. • Figure 4: 1 and 9 inhibit LPS-induced TNF-alpha release into culture medium (measured by ELISA). Human macrophages (10^6 cells) were stimulated with LPS (500 ng/ml) and treated with UCM707 and/or compounds 1 and 9 at 5 µM for 18 h. N = 3 ± SEM. • Figure 5: UCM707 (positive control) and compounds 1 and 9 diminish NO2^- production. Human macrophages (10^6 cells) were stimulated with LPS (500 ng/ml) and treated with UCM707 and/or compounds 1 and 9 at 5 µM for 18 h. Culture supernatants were assayed for nitrite levels, using the Griess reagent as a reflection of NO production. […]

FAAH = target: T1, FAAH (Sus scrofa, UniProt Q9TUI8); assay: Fatty acid amide hydrolase (FAAH) inhibition, pig brain homogenate (assay D); type: biochemical; details: 1 µM; pig brain homogenate (assay D)
T1 construct: 165 µl of diluted pig brain homogenate; from tissue; host or cells: pig brain homogenate
T1 sequence (Q9TUI8 1-579): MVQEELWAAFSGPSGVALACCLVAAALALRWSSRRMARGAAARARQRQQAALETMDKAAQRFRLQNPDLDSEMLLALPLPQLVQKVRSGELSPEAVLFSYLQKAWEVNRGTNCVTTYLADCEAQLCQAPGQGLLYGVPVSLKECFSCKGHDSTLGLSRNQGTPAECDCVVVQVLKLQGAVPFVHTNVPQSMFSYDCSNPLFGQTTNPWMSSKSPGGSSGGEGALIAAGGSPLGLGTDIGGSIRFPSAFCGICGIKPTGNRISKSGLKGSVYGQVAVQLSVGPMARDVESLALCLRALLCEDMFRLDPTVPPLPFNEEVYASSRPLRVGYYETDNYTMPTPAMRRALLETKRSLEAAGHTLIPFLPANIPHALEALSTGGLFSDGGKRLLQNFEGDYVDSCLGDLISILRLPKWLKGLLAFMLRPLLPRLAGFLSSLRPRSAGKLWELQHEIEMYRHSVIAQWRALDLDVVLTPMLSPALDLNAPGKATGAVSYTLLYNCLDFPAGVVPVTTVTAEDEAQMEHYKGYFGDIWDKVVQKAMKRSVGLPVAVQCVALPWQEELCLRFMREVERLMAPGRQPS

[1] = test system: Arachidonoylethanolamide Transport (AEAT); assay: Cellular uptake of [3H]-AEA in U937 cells (assay C); type: cell-based; details: Homo sapiens, U-937; [3H]-AEA uptake, assay C (Tables 2 and 3)
CB1 = target: T2, CB1 (Homo sapiens, UniProt P21554); assay: Radioligand displacement assay on CB1 receptor; type: binding
T2 construct: purchased Perkin Elmer RBHCB1M
T2 sequence (P21554 whole entry): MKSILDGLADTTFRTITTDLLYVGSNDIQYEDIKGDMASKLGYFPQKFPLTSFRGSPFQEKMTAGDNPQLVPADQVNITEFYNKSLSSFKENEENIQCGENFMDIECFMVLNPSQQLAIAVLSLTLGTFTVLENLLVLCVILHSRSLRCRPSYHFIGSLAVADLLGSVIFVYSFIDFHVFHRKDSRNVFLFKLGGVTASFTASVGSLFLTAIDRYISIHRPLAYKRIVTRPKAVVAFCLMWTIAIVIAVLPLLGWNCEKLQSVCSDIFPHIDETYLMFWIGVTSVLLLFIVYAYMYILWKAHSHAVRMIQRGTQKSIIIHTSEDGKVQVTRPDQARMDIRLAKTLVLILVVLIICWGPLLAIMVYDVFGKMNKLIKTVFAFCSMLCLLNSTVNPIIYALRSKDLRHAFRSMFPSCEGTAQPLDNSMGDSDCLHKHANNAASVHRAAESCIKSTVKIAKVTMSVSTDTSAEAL

Structure (SMILES)	LPS-induced TNF-alpha release into culture medium (TNF-alpha release)	FAAH inhibition at 1 µM (FAAH)	EC50 [1] [nM]	Ki (CB1) [µM]
CCCCCCC/C=C/C=C/C(=O)NCCO [Example 1, (2E,4E)-N-(2-hydroxyethyl)dodeca-2,4-diene amide]	inhibit	<10 % of control	1220 ± 240	> 20
CCCCCCC/C=C/C=C/C(=O)NCCc1cccc(OC)c1 [Example 9, (2E,4E)-N-(3-methoxyphenethyl)dodeca-2,4-diene amide]	inhibit	14.63 ± 2.91 % of control	870 ± 120	> 20
